Source: patent US11014911B2, “CDK2 inhibitors” (Pfizer Inc., priority 2019, dated 2021)
Like-named read-outs stand apart in the source and are kept apart here.

How the values were obtained:
[1] = target: CDK2/Cyclin E1 full length (Homo sapiens (Human), UniProt P24941); assay: CDK2/Cyclin E1 full length mobility shift assay; type: biochemical
[2] = target: T1, GSK3β (H350L) (Homo sapiens (Human), UniProt P49841); assay: biochemical; settings: GSK3β Ki (nM)
Procedure: (§1) The assay was initiated with the addition of ATP, following 15 minutes pre-incubation of enzyme and inhibitor at room temperature in the reaction mixture. The reaction was stopped after 30 minutes at room temperature by the addition of 50 μL of 80 mM EDTA.

[3] = target: T1, GSK3β (H350L); settings: read-out: GSK3β Ki
Procedure: as §1

T1 sequence (P49841 whole entry, stated change not applied): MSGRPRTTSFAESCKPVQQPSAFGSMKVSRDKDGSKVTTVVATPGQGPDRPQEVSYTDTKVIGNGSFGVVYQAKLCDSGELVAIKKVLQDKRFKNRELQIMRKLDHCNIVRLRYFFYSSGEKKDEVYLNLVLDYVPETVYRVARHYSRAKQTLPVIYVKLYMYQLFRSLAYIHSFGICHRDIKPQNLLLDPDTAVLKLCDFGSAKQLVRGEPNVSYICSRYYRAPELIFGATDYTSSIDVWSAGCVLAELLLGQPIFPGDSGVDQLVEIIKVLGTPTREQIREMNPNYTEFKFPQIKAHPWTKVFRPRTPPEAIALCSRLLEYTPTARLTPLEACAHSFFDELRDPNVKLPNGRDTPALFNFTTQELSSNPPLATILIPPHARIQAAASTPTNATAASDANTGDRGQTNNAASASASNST

| Ki [1] [nM] | Ki [3] [nM] | Structure (SMILES) | Ki [2] [nM] |
| --- | --- | --- | --- |
| 0.25 | – | CC(C)NC(=O)O[C@@H]1CC[C@H](c2cc(NC(=O)C3COc4ccccc43)n[nH]2)C1 (single isomer, unassigned) [Example 56] | 42.8 |
| 0.13 | – | COc1cc(CC(=O)Nc2cc([C@H]3CC[C@@H](OC(=O)N4C[C@@H](C#N)[C@@H]4C)C3)[nH]n2)ccn1 (single isomer, unassigned) [Example 155] | 1.63 |
| 0.15 | – | COc1ccc(CC(=O)Nc2cc([C@H]3CC[C@@H](OC(=O)N4CCC4C)C3)[nH]n2)cn1 (single isomer, unassigned) [Example 151] | 3.89 |
| 0.25 | – | COCc1cc(C(=O)Nc2cc([C@H]3CC[C@@H](OC(=O)NC(C)CC(F)(F)F)C3)[nH]n2)n(C)n1 (single isomer, unassigned) [Example 10] | 101 |
| 0.42 | – | CC(CC(F)(F)F)NC(=O)O[C@@H]1CC[C@H](c2cc(NC(=O)c3ccnn3CCN(C)C)[nH]n2)C1 (single isomer, unassigned) [Example 410] | 55.5 |
| 1.25 | – | O=C(Cc1cc(F)cc(F)c1)Nc1cc([C@@H]2CC[C@H](OC(=O)NCC3CCCOC3)C2)[nH]n1 (single isomer, unassigned) [Example 515] | 11.3 |
| 0.15 | – | Cc1ncc(CC(=O)Nc2cc([C@H]3CC[C@@H](OC(=O)NC(C)CC(F)(F)F)C3)[nH]n2)s1 (single isomer, unassigned) [Example 80] | 8.85 |
| 0.08 | – | CCC1(C)CCN1C(=O)O[C@@H]1CC[C@H](c2cc(NC(=O)Cc3cc(C)no3)n[nH]2)C1 (single isomer, unassigned) [Example 604] | 5 |
| 0.44 | – | CC(CC(F)(F)F)N(C)C(=O)O[C@@H]1CC[C@H](c2cc(NC(=O)Cc3cnn(C)c3)n[nH]2)C1 (single isomer, unassigned) [Example 413] | 14.7 |
| 0.25 | – | CC(CC(F)(F)F)NC(=O)O[C@@H]1CC[C@H](c2cc(NC(=O)Cc3ccno3)n[nH]2)C1 (single isomer, unassigned) [Example 86] | 12.9 |
| 0.15 | – | C[C@H]1[C@H](C#N)CN1C(=O)O[C@@H]1CC[C@H](c2cc(NC(=O)Cc3ccccc3)n[nH]2)C1 (single isomer, unassigned) [Example 161] | 5.93 |
| 0.3 | – | Cc1cnc(CC(=O)Nc2cc([C@H]3CC[C@@H](OC(=O)NC(C)CC(F)(F)F)C3)[nH]n2)cn1 (single isomer, unassigned) [Example 74] | 13.2 |
| 0.43 | 19 | CCCNC(=O)O[C@H]1CC[C@@H](c2cc(NC(=O)Cc3cc(C)no3)n[nH]2)C1 [Example 177, (1S,3R)-3-(3-{[(3-methyl-1,2-oxazol-5-yl)acetyl]amino}-1H-pyrazol-5-yl)cyclopentyl propylcarbamate] | – |
| 0.28 | 14.9 | Cc1cc(CC(=O)Nc2cc([C@H]3CC[C@@H](OC(=O)N4[C@@H](C)CC[C@@H]4C)C3)[nH]n2)on1 [Example 638, (1R,3S)-3-(3-{[(3-methyl-1,2-oxazol-5-yl)acetyl]amino}-1H-pyrazol-5-yl)cyclopentyl (2S,5S)-2,5-dimethylpyrrolidine-1-carboxylate] | – |
| 0.04 | 45.4 | CC[C@H](C)NC(=O)O[C@@H]1CC[C@H](c2cc(NC(=O)c3ccnc4ncsc34)n[nH]2)C1 [Example 43] | – |
| 0.33 | 31.2 | CC[C@H](C)NC(=O)O[C@@H]1CC[C@H](c2cc(NC(=O)Cc3cnc(C)cn3)n[nH]2)C1 [Example 34] | – |
| 0.22 | 8.22 | Cn1ccc(CC(=O)Nc2cc([C@H]3CC[C@@H](OC(=O)N4CCCC4(C)C)C3)[nH]n2)n1 [Example 136] | – |
| 0.19 | 11.7 | CC1(C)CCCN1C(=O)O[C@@H]1CC[C@H](c2cc(NC(=O)Cc3ccon3)n[nH]2)C1 [Example 135] | – |
| 0.65 | 133 | COc1cc(CC(=O)Nc2cc([C@H]3CC[C@@H](OC(=O)NC(C)(C)C)C3)[nH]n2)c(OC)cn1 [Example 315, (1R,3S)-3-(3-{[(2,5-dimethoxypyridin-4-yl)acetyl]amino}-1H-pyrazol-5-yl)cyclopentyl tert-butylcarbamate] | – |
| 0.15 | 55.4 | CC1(NC(=O)O[C@@H]2CC[C@H](c3cc(NC(=O)Cc4ccno4)n[nH]3)C2)CC1 [Example 128] | – |
| 1.17 | 6.31 | Cc1ncc(CC(=O)Nc2cc([C@H]3CC[C@@H](OC(=O)N4C[C@@](C)(O)[C@@H]4C)C3)[nH]n2)s1 [Example 623, (1R,3S)-3-(3-{[(2-methyl-1,3-thiazol-5-yl)acetyl]amino}-1H-pyrazol-5-yl)cyclopentyl (2S,3R)-3-hydroxy-2,3-dimethylazetidine-1-carboxylate] | – |
| 0.4 | 24.3 | CCCNC(=O)O[C@H]1CC[C@@H](c2cc(NC(=O)Cc3cnco3)n[nH]2)C1 [Example 166, (1S,3R)-3-{3-[(1,3-oxazol-5-ylacetyl)amino]-1H-pyrazol-5-yl}cyclopentyl propylcarbamate] | – |
| 0.15 | 40.2 | Cn1cc(CC(=O)Nc2cc([C@H]3CC[C@@H](OC(=O)NC(C)(C)C)C3)[nH]n2)cn1 [Example 112] | – |
| 0.41 | 5.12 | COc1cc(CC(=O)Nc2cc([C@@H]3CC[C@H](OC(=O)N[C@H]4CC[C@@](C)(O)CC4)C3)[nH]n2)ccn1 [Example 568, (1S,3R)-3-(3-{[(2-methoxypyridin-4-yl)acetyl]amino}-1H-pyrazol-5-yl)cyclopentyl (cis-4-hydroxy-4-methylcyclohexyl)carbamate] | – |

| Structure (SMILES) | Ki [1] [nM] | Ki [3] [nM] | Ki [2] [nM] |
| --- | --- | --- | --- |
| Cc1ncc(CC(=O)Nc2cc([C@H]3CC[C@@H](OC(=O)NC4(C)CCOC4)C3)[nH]n2)s1 (single isomer, unassigned) [Example 482] | 0.55 | – | 36.2 |
| CC(CC(F)F)NC(=O)O[C@@H]1CC[C@H](c2cc(NC(=O)Cc3cnn(C)c3)n[nH]2)C1 (single isomer, unassigned) [Example 386] | 0.66 | – | 45.9 |
| COc1cc(CC(=O)Nc2cc([C@H]3CC[C@@H](OC(=O)N[C@@H](C)[C@H](C)F)C3)[nH]n2)ccn1 (single isomer, unassigned) [Example 385, (1R,3S)-3-(3-{[(2-methoxypyridin-4-yl)acetyl]amino}-1H-pyrazol-5-yl)cyclopentyl [(2S*,3S*)-3-fluorobutan-2-yl]carbamate] | 0.52 | – | 25.9 |
| CCC(NC(=O)O[C@@H]1CC[C@H](c2cc(NC(=O)Cc3ccnc(OC)c3)n[nH]2)C1)C(F)(F)F (single isomer, unassigned) [Example 406] | 1.81 | – | 73.3 |
| Cc1cnc(CC(=O)Nc2cc([C@@H]3CC[C@H](OC(=O)NC4(C)CCOC4)C3)[nH]n2)o1 (single isomer, unassigned) [Example 475] | 0.83 | – | 23.9 |
| CCC(NC(=O)O[C@@H]1CC[C@H](c2cc(NC(=O)Cc3cnc(C)s3)n[nH]2)C1)C(F)(F)F (single isomer, unassigned) [Example 403] | 1.76 | – | 76.1 |
| COc1cnc(CC(=O)Nc2cc([C@H]3CC[C@@H](OC(=O)NC4(C)CC4)C3)[nH]n2)cn1 [Example 6, (1R,3S)-3-(3-{[(5-methoxypyrazin-2-yl)acetyl]amino}-1H-pyrazol-5-yl)cyclopentyl (1-methylcyclopropyl)carbamate] | 0.38 | – | 32.3 |
| CC[C@H](C)NC(=O)O[C@@H]1CC[C@H](c2cc(NC(=O)Cc3ccno3)n[nH]2)C1 [Example 16, (1R,3S)-3-{3-[(1,2-oxazol-5-ylacetyl)amino]-1H-pyrazol-5-yl}cyclopentyl (2S)-butan-2-ylcarbamate] | 0.37 | – | 51.7 |
| CCC(NC(=O)O[C@@H]1CC[C@H](c2cc(NC(=O)Cc3cnc(C)s3)n[nH]2)C1)C(F)(F)F (single isomer, unassigned) [Example 404] | 1.38 | – | 84.3 |
| CC1(NC(=O)O[C@@H]2CC[C@H](c3cc(NC(=O)Cc4cnc(C(F)(F)F)cn4)n[nH]3)C2)CCOC1 (single isomer, unassigned) [Example 493] | 0.98 | – | 157 |
| Cc1ccc(CC(=O)Nc2cc([C@H]3CC[C@@H](OC(=O)NC(C)C(C)(F)F)C3)[nH]n2)cn1 (single isomer, unassigned) [Example 388] | 2.34 | – | 36.9 |
| CCC(CO)CNC(=O)O[C@@H]1CC[C@H](c2cc(NC(=O)Cc3cc(C)no3)n[nH]2)C1 (single isomer, unassigned) [Example 524] | 1.69 | – | 10.9 |
| CCNC(=O)O[C@@H]1CC[C@H](c2cc(NC(=O)Cc3ccc(C)nc3)n[nH]2)C1 [Example 227, (1R,3S)-3-(3-{[(6-methylpyridin-3-yl)acetyl]amino}-1H-pyrazol-5-yl)cyclopentyl ethylcarbamate] | 1.21 | 18.9 | – |
| CC[C@H](C)NC(=O)O[C@@H]1CC[C@H](c2cc(NC(=O)Cc3cc(OC)ncc3S(C)(=O)=O)n[nH]2)C1 [Example 375, (1R,3S)-3-[3-({[2-methoxy-5-(methylsulfonyl)pyridin-4-yl]acetyl}amino)-1H-pyrazol-5-yl]cyclopentyl (2S)-butan-2-ylcarbamate] | 0.31 | 116 | – |
| CC[C@H](C)NC(=O)O[C@@H]1CC[C@H](c2cc(NC(=O)Cc3scnc3C)n[nH]2)C1 [Example 342, (1R,3S)-3-(3-{[(4-methyl-1,3-thiazol-5-yl)acetyl]amino}-1H-pyrazol-5-yl)cyclopentyl (2S)-butan-2-ylcarbamate] | 0.74 | 40 | – |
| COc1ccc(CC(=O)Nc2cc([C@H]3CC[C@@H](OC(=O)N4CCC4(C)C)C3)[nH]n2)cn1 [Example 144] | 0.1 | 1.26 | – |
| CC[C@H](C)NC(=O)O[C@@H]1CC[C@H](c2cc(NC(=O)Cc3cc(C)ncc3S(C)(=O)=O)n[nH]2)C1 [Example 373, (1R,3S)-3-[3-({[2-methyl-5-(methylsulfonyl)pyridin-4-yl]acetyl}amino)-1H-pyrazol-5-yl]cyclopentyl (2S)-butan-2-ylcarbamate] | 0.47 | 74.3 | – |
